Assay results as given in publication PMC9308172 (Journal of medicinal chemistry, 2017).

Target: M2TMS31N (Influenza A virus, UniProt P0DOF5, S31N)
Format: binding, influenza A (A/Udorn/307/72, S31N mutant)
Conditions: for binding to M2TMS31N according to ITC (in words): pH 8

| Structure (SMILES) | binding to M2TMS31N according to ITC (in words) | ΔG |
| --- | --- | --- |
| CCCC1(N)C2CC3CC(C2)CC1C3 (centres unmarked) [Compound 5] | bind weakly |  |
| C1CNC2(C1)C1CC3CC(C1)CC2C3 (centres unmarked) [Compound 6] | bind weakly | -6.68 ± 0.296 kcal/mol |
| NC1(C23CC4CC(CC(C4)C2)C3)CCCC1 [Compound 9] |  | -6.745 ± 0.229 kcal/mol |
| NC1(C23CC4CC(CC(C4)C2)C3)CCCCC1 [Compound 10, 1-(1-Adamantyl)cyclohexanamine] |  | -7.029 ± 0.308 kcal/mol |
